Source: patent publication US20220305012A1, “L[…] TREATING SLEEP ISSUES” (EISAI R&D MANAGEMENT CO., LTD., priority 2019, published 2022)
Like-named read-outs stand apart in the source and are kept apart here.

Experiments:
[1] = Example 1: plasma concentrations of lemborexant and metabolites; assay type: in vivo, human; conditions: for concentration at 1 month / concentration at 3 month / concentration at 6 month: human, plasma
Protocol: (§1) Month 1 Assessment: Standard safety assessments were performed on the subject. A blood sample was collected for determination of plasma concentration of lemborexant and its metabolites, and the ISI, FSS, PGI-Insomnia, EQ-5D-3L, and eC-SSR were completed.
(§2) Month 3 Assessment: All assessments conducted at the Month 1 Assessment were repeated.
(§3) Month 6 Assessment: All assessments conducted at the Month 1 Assessment were repeated, and subjects completed the WPAI-GH.

[2] = test system: Subjects Having Insomnia Disorder; assay: Example 1: Insomnia Severity Index Daytime Functioning (Items 4-7); assay type: in vivo, human
Description: As used herein, the term “Insomnia Severity Index”, abbreviated as “ISI”, is an index calculated using a 7-item, self-report questionnaire assessing the nature, severity, and impact of insomnia (see Bastien, C. H., et al. “Validation of the Insomnia Severity Index as an outcome measure for insomnia research.” Sleep Med. 2001; 2(4): 297-307). The questionnaire evaluates: (1) severity of sleep onset; (2) sleep maintenance; (3) early morning awakening problems; (4) sleep dissatisfaction; (5) interference caused by sleep difficulties with daytime functioning; (6) noticeability of sleep problems by others; and (7) distress caused by the sleep difficulties. A 5-point scale is used to rate each item (0=no problem to 4=very severe problem) yielding a total score from 0 to 28. Total ISI score (items (1)-(7)) and daytime functioning (items (4)-(7)) are analyzed separately.
as §1, §2, §3
In addition to the aforementioned study endpoints, the study included several additional secondary endpoints: • Mean change from study baseline of subjective sleep onset latency, subjective sleep efficiency, subjective wake after sleep onset, and subjective total sleep time at the beginning of treatment (mean of the 7 nights after the first dose in Period 1), at Month 1 and at Month 3. • Mean change from study baseline of subjective total sleep time at Month 6. • Change from study baseline in daytime functioning, assessed as the total score from the 4 items on daytime functioning, on the Insomnia Severity Index, at Months 1, 3, and 6.

Cc1ncc(OC[C@@]2(c3cccc(F)c3)C[C@H]2C(=O)Nc2ccc(F)cn2)c(C)n1 [Lemborexant, (1R,2S)-2-(((2,4-dimethylpyrimidin-5-yl)oxy)methyl)-2-(3-fluorophenyl)-N-(5-fluoropyridin-2-yl)cyclopropanecarboxamide]
concentration at 1 month ([1]; 10 mg, lemborexant 10 mg dose, Month 1, read-out: Plasma concentration, Mean (SD)): 16.3 ng/mL | concentration at 1 month ([1]; 10 mg, lemborexant 10 mg dose, Month 1, read-out: Plasma concentration, Median): 15.1 ng/mL | concentration at 3 month ([1]; 10 mg, lemborexant 10 mg dose, Month 3, read-out: Plasma concentration, Mean (SD)): 15.6 ng/mL | concentration at 3 month ([1]; 10 mg, lemborexant 10 mg dose, Month 3, read-out: Plasma concentration, Median): 15.1 ng/mL | concentration at 6 month ([1]; 10 mg, lemborexant 10 mg dose, Month 6, read-out: Plasma concentration, Mean (SD)): 15.2 ng/mL | concentration at 6 month ([1]; 10 mg, lemborexant 10 mg dose, Month 6, read-out: Plasma concentration, Median): 14.5 ng/mL | concentration at 1 month ([1]; oral, 5 mg, lemborexant 5 mg dose, Month 1, read-out: Plasma concentration, Mean (SD)): 9 ng/mL | concentration at 1 month ([1]; oral, 5 mg, lemborexant 5 mg dose, Month 1, read-out: Plasma concentration, Median): 7.6 ng/mL | concentration at 3 month ([1]; oral, 5 mg, lemborexant 5 mg dose, Month 3, read-out: Plasma concentration, Mean (SD)): 8.4 ng/mL | concentration at 3 month ([1]; oral, 5 mg, lemborexant 5 mg dose, Month 3, read-out: Plasma concentration, Median): 7.7 ng/mL | concentration at 6 month ([1]; oral, 5 mg, lemborexant 5 mg dose, Month 6, read-out: Plasma concentration, Mean (SD)): 7.9 ng/mL | concentration at 6 month ([1]; oral, 5 mg, lemborexant 5 mg dose, Month 6, read-out: Plasma concentration, Median): 6.9 ng/mL | Plasma concentration BLQ (<0.0500 ng/mL) ([1]; lemborexant 5 mg dose, Month 1): 31 (10.5) n (%) | Plasma concentration BLQ (<0.0500 ng/mL) ([1]; lemborexant 5 mg dose, Month 3): 34 (12.6) n (%) | Plasma concentration BLQ (<0.0500 ng/mL) ([1]; lemborexant 5 mg dose, Month 6): 45 (18.2) n (%) | Plasma concentration BLQ (<0.0500 ng/mL) ([1]; lemborexant 10 mg dose, Month 1): 21 (7.4) n (%) | Plasma concentration BLQ (<0.0500 ng/mL) ([1]; lemborexant 10 mg dose, Month 3): 29 (11.2) n (%) | Plasma concentration BLQ (<0.0500 ng/mL) ([1]; lemborexant 10 mg dose, Month 6): 33 (14.6) n (%) | ISI Daytime Functioning (Items 4-7), Mean ([2]; 5 mg, Month 1): 7.2 | ISI Daytime Functioning (Items 4-7), Median ([2]; 5 mg, Month 1): 7.0 | ISI Daytime Functioning (Items 4-7), Mean ([2]; 5 mg, Month 3): 6.2 | ISI Daytime Functioning (Items 4-7), Median ([2]; 5 mg, Month 3): 6.0 | ISI Daytime Functioning (Items 4-7), Mean ([2]; 5 mg, Month 6): 5.4 | ISI Daytime Functioning (Items 4-7), Median ([2]; 5 mg, Month 6): 5.0 | ISI Daytime Functioning Change from Study Baseline, Mean ([2]; 5 mg, Month 6): −6.0 | ISI Daytime Functioning Change from Study Baseline, Median ([2]; 5 mg, Month 6): −6.0 | ISI Daytime Functioning LSM treatment difference: Lemborexant/Placebo ([2]; 5 mg, Month 6): −1.30 | ISI Daytime Functioning (Items 4-7), Mean ([2]; 5 mg, Study Baseline): 11.4 | ISI Daytime Functioning (Items 4-7), Median ([2]; 5 mg, Study Baseline): 11.0 | ISI Daytime Functioning Change from Study Baseline, Mean ([2]; 5 mg, after 1 Month): −4.1 | ISI Daytime Functioning Change from Study Baseline, Median ([2]; 5 mg, after 1 Month): −3.0 | ISI Daytime Functioning Change from Study Baseline, Mean ([2]; 5 mg, after 3 Months): −5.2 | ISI Daytime Functioning Change from Study Baseline, Median ([2]; 5 mg, after 3 Months): −5.0 | ISI Daytime Functioning LSM treatment difference: Lemborexant/Placebo ([2]; 5 mg, change from Study Baseline after 1 Month): −0.71 | ISI Daytime Functioning LSM treatment difference: Lemborexant/Placebo ([2]; 5 mg, change from Study Baseline after 3 Months): −1.16 | ISI Daytime Functioning (Items 4-7), Mean ([2]; 10 mg, Month 1): 7.0 | ISI Daytime Functioning (Items 4-7), Median ([2]; 10 mg, Month 1): 7.0 | ISI Daytime Functioning (Items 4-7), Mean ([2]; 10 mg, Month 3): 6.0 | ISI Daytime Functioning (Items 4-7), Median ([2]; 10 mg, Month 3): 5.0 | ISI Daytime Functioning (Items 4-7), Mean ([2]; 10 mg, Month 6): 5.4 | ISI Daytime Functioning (Items 4-7), Median ([2]; 10 mg, Month 6): 5.0 | ISI Daytime Functioning Change from Study Baseline, Mean ([2]; 10 mg, Month 6): −5.7 | ISI Daytime Functioning Change from Study Baseline, Median ([2]; 10 mg, Month 6): −6.0 | ISI Daytime Functioning LSM treatment difference: Lemborexant/Placebo ([2]; 10 mg, Month 6): −1.32 | ISI Daytime Functioning (Items 4-7), Mean ([2]; 10 mg, Study Baseline): 11.0 | ISI Daytime Functioning (Items 4-7), Median ([2]; 10 mg, Study Baseline): 11.0 | ISI Daytime Functioning Change from Study Baseline, Mean ([2]; 10 mg, after 1 Month): −4.2 | ISI Daytime Functioning Change from Study Baseline, Median ([2]; 10 mg, after 1 Month): −4.0 | ISI Daytime Functioning Change from Study Baseline, Mean ([2]; 10 mg, after 3 Months): −5.2 | ISI Daytime Functioning Change from Study Baseline, Median ([2]; 10 mg, after 3 Months): −5.0 | ISI Daytime Functioning LSM treatment difference: Lemborexant/Placebo ([2]; 10 mg, change from Study Baseline after 1 Month): −0.94 | ISI Daytime Functioning LSM treatment difference: Lemborexant/Placebo ([2]; 10 mg, change from Study Baseline after 3 Months): −1.36
